Experimental data taken from patent US9271960B2, “Tetrahydrocarbazoles as active agents for inhibiting VEGF production by translational control” (PTC Therapeutics, Inc., priority 2004, dated 2016).
Like-named read-outs stand apart in the source and are kept apart here.

Tested on: VEGF
Experiment: Hypoxia-inducible endogenous VEGF expression ELISA in HeLa cells
Assay type: cell-based
Conditions: Homo sapiens, compounds 1-155, hypoxic conditions (1% O2), VEGF protein by ELISA, read-out: ELISA Activity
Experimental: The ability of compounds of the invention to modulate hypoxia-inducible endogenous VEGF expression is analyzed as follows. VEGF protein levels are monitored by an ELISA assay (R&D Systems). Briefly, HeLa cells are cultured for 24-48 hours under hypoxic conditions (1% O2, 5% CO2, balanced with nitrogen) in the presence or absence of a compound of the invention. The conditioned media is then assayed by ELISA, and the concentration of VEGF is calculated from the standard ELISA curve of each assay.
A dose-response analysis is performed using the ELISA assay and conditions described above. A series of different concentrations (e.g., seven) are analyzed. In parallel, a dose-response cytotoxicity assay is performed using Cell Titer Glo (Promega) under the same conditions as the ELISA to ensure that the inhibition of VEGF expression is not due to cytotoxicity. Dose-response curves are plotted using percentage inhibition versus concentration of the compound, and EC50 and CC50 values are generated for each compound with the maximal inhibition set as 100% and the minimal inhibition as 0%.
Compounds 156-188 in Table 1 are commercially available. In Table 1, each of the represented compounds is followed by one to five stars.

SMILES | EC50 (HeLa) [nM] | EC50 [nM]
N#Cc1ccc(NC2CCCc3c2[nH]c2ccc(Br)cc32)cc1 (stereo not drawn) [Compound 44, 4-(6-Bromo-2,3,4,9-tetrahydro-1H-carbazol-1-ylamino)-benzonitrile] | 40 to 200 | –
O=S(=O)(NC1CCCc2c1[nH]c1ccc(Br)cc21)c1ccccc1 (stereo not drawn) [Compound 46, N-(6-Bromo-2,3,4,9-tetrahydro-1H-carbazol-1-yl)-benzenesulfonamide] | 40 to 200 | –
Brc1ccc2c3c([nH]c2c1)C(Nc1ccccc1)CCC3 (stereo not drawn) [Compound 47, (7-Bromo-2,3,4,9-tetrahydro-1H-carbazol-1-yl)-phenyl-amine] | 40 to 200 | –
Clc1ccc2[nH]c3c(c2c1Cl)CCCC3n1cccc1 (stereo not drawn) [Compound 48, 5,6-Dichloro-1-pyrrol-1-yl-2,3,4,9-tetrahydro-1H-carbazole] | 40 to 200 | –
O=C1CCCc2c1[nH]c1ccc(Br)cc21 [Compound 50, 6-Bromo-2,3,4,9-tetrahydro-carbazol-1-one] | 40 to 200 | –
O=C(NC1CCCc2c1[nH]c1ccc(Br)cc21)c1ccc(Cl)nc1 (stereo not drawn) [Compound 52, N-(6-Bromo-2,3,4,9-tetrahydro-1H-carbazol-1-yl)-6-chloro-nicotinamide] | 40 to 200 | –
CC1CCc2c(n(C)c3ccc(Br)cc23)C1=O (stereo not drawn) [Compound 53, 6-Bromo-2,9-dimethyl-2,3,4,9-tetrahydro-carbazol-1-one] | 40 to 200 | –
COc1cccc(CNC2CCCc3c2[nH]c2ccc(Br)cc32)c1OC (stereo not drawn) [Compound 55, (6-Bromo-2,3,4,9-tetrahydro-1H-carbazol-1-yl)-(2,3-dimethoxy-benzyl)-amine] | 40 to 200 | –
COc1ccc2[nH]c3c(c2c1)CCCC3n1cccc1 (stereo not drawn) [Compound 56, 6-Methoxy-1-pyrrol-1-yl-2,3,4,9-tetrahydro-1H-carbazole] | 40 to 200 | –
CC(=O)Nc1ccc(NC2CCCc3c2[nH]c2ccc(Br)cc32)cc1 (stereo not drawn) [Compound 57, N-[4-(6-Bromo-2,3,4,9-tetrahydro-1H-carbazol-1-ylamino)-phenyl]-acetamide] | 200 to 1000 | –
O=C(NC1CCCc2c1[nH]c1ccc(Br)cc21)c1cccnc1 (stereo not drawn) [Compound 58, N-(6-Bromo-2,3,4,9-tetrahydro-1H-carbazol-1-yl)-nicotinamide] | 40 to 200 | –
N#Cc1ccc2[nH]c3c(c2c1)CCCC3n1cccc1 (stereo not drawn) [Compound 59, 8-Pyrrol-1-yl-6,7,8,9-tetrahydro-5H-carbazole-3-carbonitrile] | 200 to 1000 | –
OCCc1cccc(NC2CCCc3c2[nH]c2ccc(Br)cc32)c1 (stereo not drawn) [Compound 63, 2-[3-(6-Bromo-2,3,4,9-tetrahydro-1H-carbazol-1-ylamino)-phenyl]-ethanol] | 200 to 1000 | –
Cc1ccc2[nH]c3c(c2c1)CCCC3=O [Compound 71, 6-Methyl-2,3,4,9-tetrahydro-carbazol-1-one] | 200 to 1000 | –
CCCCNC1CCCc2c1[nH]c1ccc(Br)cc21 (stereo not drawn) [Compound 72, (6-Bromo-2,3,4,9-tetrahydro-1H-carbazol-1-yl)-butyl-amine] | 200 to 1000 | –
O=C(NC1CCCc2c1[nH]c1ccc(Br)cc21)Oc1ccccc1 (stereo not drawn) [Compound 75, (6-Bromo-2,3,4,9-tetrahydro-1H-carbazol-1-yl)-carbamic acid phenyl ester] | – | > 1000
O=C1CCCc2c1[nH]c1ccc(Cl)cc21 [Compound 76, 6-Chloro-2,3,4,9-tetrahydro-carbazol-1-one] | > 1000 | –

Second part, led by results:

EC50 (HeLa) [nM] | SMILES | EC50 [nM]
40 to 200 | N#Cc1ccn(C2CCCc3c2[nH]c2ccc(Br)cc32)c1 (stereo not drawn) [Compound 42, 1-(6-Bromo-2,3,4,9-tetrahydro-1H-carbazol-1-yl)-1H-pyrrole-3-carbonitrile] | –
40 to 200 | Brc1cccc2[nH]c3c(c12)CCCC3Nc1ccccc1 (stereo not drawn) [Compound 43, (5-Bromo-2,3,4,9-tetrahydro-1H-carbazol-1-yl)-phenyl-amine] | –
40 to 200 | COc1ccccc1NC1CCCc2c1[nH]c1ccc(Br)cc21 (stereo not drawn) [Compound 45, (6-Bromo-2,3,4,9-tetrahydro-1H-carbazol-1-yl)-(2-methoxy-phenyl)-amine] | –
40 to 200 | Brc1ccc2[nH]c3c(c2c1)CCCC3n1ccc(CNc2ccccc2)c1 (stereo not drawn) [Compound 49, [1-(6-Bromo-2,3,4,9-tetrahydro-1H-carbazol-1-yl)-1H-pyrrol-3-ylmethyl]-phenyl-amine] | –
40 to 200 | Brc1ccc2[nH]c3c(c2c1)CCCC3Nc1ccon1 (stereo not drawn) [Compound 51, (6-Bromo-2,3,4,9-tetrahydro-1H-carbazol-1-yl)-isoxazol-3-yl-amine] | –
40 to 200 | Fc1ccc(OC2CCCc3c2[nH]c2ccc(Br)cc32)cc1 (stereo not drawn) [Compound 54, 6-Bromo-1-(4-fluoro-phenoxy)-2,3,4,9-tetrahydro-1H-carbazole] | –
200 to 1000 | O=C1CCCc2c1[nH]c1ccc(C(F)(F)F)cc21 [Compound 60, 6-Trifluoromethyl-2,3,4,9-tetrahydro-carbazol-1-one] | –
200 to 1000 | CN(C)c1ccc(NC2CCCc3c2[nH]c2ccc(Br)cc32)cc1 (stereo not drawn) [Compound 61, N-(6-Bromo-2,3,4,9-tetrahydro-1H-carbazol-1-yl)-N′,N′-dimethyl-benzene-1,4-diamine] | –
200 to 1000 | Brc1ccc2[nH]c3c(c2c1)CCCC3NCc1ccc2c(c1)OCO2 (stereo not drawn) [Compound 62, Benzo[1,3]dioxo-5-ylmethyl-(6-bromo-2,3,4,9-tetrahydro-1H-carbazol-1-yl)-amine] | –
200 to 1000 | Brc1ccc2[nH]c3c(c2c1)CCCC3n1ccc(CN2CCOCC2)c1 (stereo not drawn) [Compound 64, 6-Bromo-1-(3-morpholin-4-ylmethyl-pyrrol-1-yl)-2,3,4,9-tetrahydro-1H-carbazole] | –
200 to 1000 | Brc1ccc2[nH]c3c(c2c1)CCCC3N1CC=CC1 (stereo not drawn) [Compound 65, 6-Bromo-1-(2,5-dihydro-pyrrol-1-yl)-2,3,4,9-tetrahydro-1H-carbazole] | –
200 to 1000 | CN(C(=O)c1cccc(Cl)c1)C1CCCc2c1[nH]c1ccc(Br)cc21 (stereo not drawn) [Compound 66, N-(6-Bromo-2,3,4,9-tetrahydro-1H-carbazol-1-yl)-3-chloro-N-methyl-benzamide] | –
200 to 1000 | Brc1ccc2[nH]c3c(c2c1)CCCC3NCC1CCCCC1 (stereo not drawn) [Compound 67, (6-Bromo-2,3,4,9-tetrahydro-1H-carbazol-1-yl)-cyclohexylmethyl-amine] | –
200 to 1000 | Brc1ccc2[nH]c3c(c2c1)CCCC3NCc1ccco1 (stereo not drawn) [Compound 68, (6-Bromo-2,3,4,9-tetrahydro-1H-carbazol-1-yl)-furan-2-ylmethyl-amine] | –
200 to 1000 | CN(C(=O)c1ccccc1)C1CCCc2c1[nH]c1ccc(Br)cc21 (stereo not drawn) [Compound 69, N-(6-Bromo-2,3,4,9-tetrahydro-1H-carbazol-1-yl)-N-methyl-benzamide] | –
200 to 1000 | Cc1ccc(C)n1C1CCCc2c1[nH]c1ccc(Br)cc21 (stereo not drawn) [Compound 70, 6-Bromo-1-(2,5-dimethylpyrrol-1-yl)-2,3,4,9-tetrahydro-1H-carbazole] | –
200 to 1000 | O=C1CCCc2c1[nH]c1ccc(OC(F)(F)F)cc21 [Compound 73, 6-Trifluoromethoxy-2,3,4,9-tetrahydro-carbazol-1-one] | –
< 10 | O=C(NC1CCCc2c1[nH]c1ccc(Br)cc21)c1cnccn1 (stereo not drawn) [Compound 74, Pyrazine-2-carboxylic acid (6-bromo-2,3,4,9-tetrahydro-1H-carbazol-1-yl)-amide] | –
> 1000 | Brc1ccc2[nH]c3c(c2c1)CCCC3NCC1CCCO1 (stereo not drawn) [Compound 77, (6-Bromo-2,3,4,9-tetrahydro-1H-carbazol-1-yl)-(tetrahydro-furan-2-ylmethyl)-amine] | –
